# From patent publication US20030158152A1, “Protease inhibitors and their pharmaceutical uses” (priority 2000, published 2003)
# Test system: HIV-1 (isolated standard virus Z2Z6) in PM1 cells
# Assay: Anti-HIV evaluation in HIV-1-infected PM1 lymphocytic cell culture, cell viability read by MTT technique
# Format: cell-based
# Settings: 10^4 cells/well, infected with HIV-1 isolate Z2Z6 at MOI 0.002, MTT cellular viability on 6th day after infection, cut-off 50% of emission of uninfected cells
# Procedure: The pharmacological evaluation of the derivatives obtained was undertaken using test plates with a PM1 strain cell culture, lymphocytic strain established in culture, expressing the receptors CD4+ and co-receptors C5 and R4 of the HIV-1 and producers of syncytium, incubated with isolated standard virus Z2Z6 purified by passage in cell culture PM-1, having a titer of 3.96×10^2 TCID50/ml. The infection was accomplished by using plates having 96 wells, each containing 10^4 cells/well, infected with a MOI (Multiplicity Of Infection) of 0.002. The compounds being evaluated were initially diluted in dimethylsulphoxide (DMSO) to a final concentration of 10 mM and subsequently diluted in base medium RPMI 1640 to 20 μM.
# Nine wells of the cells infected initially with the isolated HIV Z6 were exposed to decreasing concentrations of the compounds at 20 μM by a factor of 2 (base log 2). The culture medium employed was the RPMI 1640, added with 10% bovine foetal serum, antibiotics […]/penicilyne and L-glutamine.
# The last and tenth well was kept as a control of the infection, without the presence of the drug blank. Each line of ten wells was produced in triplicate, for posterior statistical analysis. INDINAVIR was used as control, in the same dilutions as the compounds being tested. Cytotoxic analysis was carried out on a fourth set of 10 (ten) wells with cells by applying the compounds of the present invention diluted as described hereinabove. The plates were kept in an oven with 5% CO2, at a temperature of 37° C. and verified daily by optical phase microscopy for the analysis of the occurance of syncytia, which was confirmed on the 4th day after infection.
# The results were analysed using a Microsoft Excel matrix, with correction of the blanks, and plotting of the emission frequency graph of the assay (in percentage, using as the 100% standard the emission from the viable cells of the wells without infection) as measurement of cellular viability. The value of 50% of emission of the standard was considered as cut-off point for the IC50 calculation. This value was attained, after plotting on the graph of the logarithmic regression curve equation, the points obtained from the IC curve prior to the formation of the plateau of the curve.
row,Molecule,IC50
1,CC(O)C(C)O (stereo not shown) [Compound 11b],> 100 µM

# Same assay, conditions: 10^4 cells/well, infected with HIV-1 isolate Z2Z6 at MOI 0.002, MTT cellular viability on 6th day after infection, cut-off 50% of emission of uninfected cells, read-out: IC50
row,Molecule,IC50
1,"1,4-di(benzylamine)-(2S,3S)-butane-2,3-diol [Compound 2a]",> 100 µM
2,"1N,4N-di[1-carbetoxy-2-(1H-3-indoyl)-(1S)-ethyl]-2,3-dihydroxy-(2S,3S)-butanediamide [Compound 3g]",> 100 µM
3,"1N,4N-di[1-carbetoxy-2-methyl-(1S)-propyl]-2,3-dihydroxy-(2S,3S)-butanediamide [Compound 3b]",> 100 µM
4,"1N,4N-di[1-carbetoxy-2-phenyl-(1S)-ethyl]-2,3-dihydroxy-(2S,3S)-butanediamide [Compound 3e]",> 100 µM
5,"1N,4N-di[1-carbetoxy-3-methyl-(1S)-butyl]-2,3-dihydroxy-(2S,3S)-butanediamide [Compound 3c]",10 µM
6,"1N,4N-di[2-(4-hydroxyphenyl)-1-carbetoxy-1-(1S)-ethyl]-2,3-dihydroxy-(2S,3S)-butanediamide [Compound 3f]",50 µM
7,"1N,4N-di[-carbetoxy-2-phenyl-(1S)-ethyl]-2,3-diacetoxy-(2S,3S)-butanediamide [Compound 10e]",50 µM
8,"O=C(NCc1ccccc1)[C@@H](O)[C@H](O)C(=O)NCc1ccccc1 [Compound 1a, 1N,4N-dibenzyl-2,3-dihydroxy-(2S,3S)-butanediamide]",> 100 µM
9,"CCOC(=O)[C@H](C)NC(=O)[C@@H](O)[C@H](O)C(=O)N[C@@H](C)C(=O)OCC [Compound 3a, 1N,4N-di[1-carbetoxy-(1S)-ethyl]-2,3-dihydroxy-(2S,3S)-butanediamide]",> 100 µM
10,"CCOC(=O)[C@@H](NC(=O)[C@@H](O)[C@H](O)C(=O)N[C@H](C(=O)OCC)[C@@H](C)CC)[C@@H](C)CC [Compound 3d, 1N,4N-di[1-carbetoxy-2-methyl-(1S,2S)-butyl]-2,3-dihydroxy-(2S,35)-butanediamide]",> 100 µM
11,"CC(=O)O[C@H](C(=O)NCc1ccccc1)[C@H](OC(C)=O)C(=O)NCc1ccccc1 [Compound 8a, 1N,4N-dibenzyl-2,3-diacetoxy-(2S,3S)-butanediamide]",> 100 µM
12,"NNC(=O)[C@H](Cc1ccccc1)NC(=O)[C@@H](O)[C@H](O)C(=O)N[C@@H](Cc1ccccc1)C(=O)NN [Compound 14e, 1N,4N-di[1-carbonylhydrazine-2-phenyl-(1S)-ethyl]-2,3-dihydroxy-(2S,3S)-butanediamide]",> 100 µM
13,"O=C(NCc1ccccc1)[C@H](Cc1ccccc1)NC(=O)[C@@H](O)[C@H](O)C(=O)N[C@@H](Cc1ccccc1)C(=O)NCc1ccccc1 [Compound 15, 1N,4N-di[1-carbonylbenzylamine-2-phenyl-(1S)-ethyl]-2,3-dihydroxy-(2S,3S)-butanediamide]",> 100 µM
14,"CCOC(=O)[C@H](Cc1ccccc1)NC(=O)[C@H](OC(C)=O)[C@@H](OC(C)=O)C(=O)N[C@@H](Cc1ccccc1)C(=O)OCC [Compound 18, 1N,4N-di[1-carbetoxy-2-phenyl-(1S)-ethyl]-2,3-diacetoxy-(2R,3R)-butanediamide]",> 100 µM
15,"CCOC(=O)[C@H](Cc1ccccc1)NC(=O)[C@H](O)[C@@H](O)C(=O)N[C@@H](Cc1ccccc1)C(=O)OCC [Compound 19, 1N,4N-di[1-carbetoxy-2-phenyl-(1S)-ethyl]-2,3-dihydroxy-(2R,3R)-butanediamide]",> 100 µM
16,"CC(=O)O[C@@H](C(=O)NCc1ccccc1)[C@@H](OC(C)=O)C(=O)NCc1ccccc1 [Compound 20, 1N,4N-dibenzyl-2,3-diacetoxy-(2R,3R)-butanediamide]",> 100 µM
17,"O=C(NCc1ccccc1)[C@H](O)[C@@H](O)C(=O)NCc1ccccc1 [Compound 21, 1N,4N-dibenzyl-2,3-dihydroxy-(2R,3R)-butanediamide]",> 100 µM
18,"O[C@H](CNCc1ccccc1)[C@H](O)CNCc1ccccc1 [Compound 22, 1,4-di(benzylamine)-(2R,3R)-butane-2,3-diol]",> 100 µM
